Test results published in paper PMC5011342, “A high throughput drug screening assay to identify compounds that promote oligodendrocyte differentiation using acutely dissociated and purified oligodendrocyte precursor cells” (BMC Research Notes, 2016).
Like-named read-outs stand apart in the source and are kept apart here.

Assays:
expanded OPCs = assay: cells; conditions: for 0.1 µM (% DMSO) / 1 µM (% DMSO) / 10 µM (% DMSO): alamarBlue viability of expanded OPCs, relative to DMSO control; for 0.1 µM (% DMSO): compound at 0.1 µM; for 1 µM (% DMSO): compound at 1 µM; for 10 µM (% DMSO): compound at 10 µM; for viability at 0.1 µM / viability at 1 µM / viability at 10 µM: Rattus norvegicus, 72 h
Procedure, shortened: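 Expanded OPCs seeded at 10,000 cells/well in differentiation media, then exposed to NCC library compounds at 10, 1 and 0.1 µM (quadruplicate, 0.1% DMSO) for three days. Viability read as alamarBlue fluorescence (560/590 nm) after 4 h at 37 °C; tunicamycin 5 ng/ml served as toxicity control.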

[1] = system: acutely dissociated and purified rat OPCs; assay: Acute OL differentiation assay (MBP expression/cell, immunofluorescent image quantification); assay type: cell-based; conditions: Rattus norvegicus, sheet "All OLga data"; for activation at 0.4 µM: 0.4 uM test compound, read-out: OL differentiation, 0.4 uM (% Quet)
Procedure, shortened: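 Oligodendrocyte precursor cells were enriched from P6-P7 Sprague–Dawley rat brains by immunopanning (RAN-2 and GalC depletion, O4 selection), plated at 5000 cells/well in serum-free, mitogen-free differentiation media on PDL/laminin 96-well view plates, centrifuged at 200×g, and pre-incubated 1–2 h before test compounds were added in quadruplicate. On DIV4, cells were fixed, stained for MBP and DAPI, imaged automatically, and MBP expression per cell was quantified.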

[2] = test compound at 2 uM, MBP expression relative to quetiapine, NCC library screen, read-out: 2 uM (% Quet)
[3] = test compound at 10 uM, MBP expression relative to quetiapine, NCC library screen, read-out: 10 uM (% Quet)
[4] = read-out: 0.1 µM (% DMSO), alamarBlue viability of expanded OPCs, compound at 0.1 µM, sheet All Tox data
[5] = read-out: 1 µM (% DMSO), alamarBlue viability of expanded OPCs, compound at 1 µM, sheet All Tox data
[6] = read-out: 10 µM (% DMSO), alamarBlue viability of expanded OPCs, compound at 10 µM, sheet All Tox data
[7] = 2 uM test compound, relative to quetiapine, read-out: OL differentiation, 2 uM (% Quet)
[8] = test compound at 2 uM, NCC library screen, relative to quetiapine, read-out: 2 uM (% Quet)
[9] = test compound at 10 uM, NCC library screen, relative to quetiapine, read-out: 10 uM (% Quet)
[10] = read-out: 0.1 µM (% DMSO), alamarBlue viability, NCC library compound at 0.1 µM, sheet "All Tox data"
[11] = read-out: 1 µM (% DMSO), alamarBlue viability, NCC library compound at 1 µM, sheet "All Tox data"
[12] = read-out: 10 µM (% DMSO), alamarBlue viability, NCC library compound at 10 µM, sheet "All Tox data"
[13] = 10 uM test compound, relative to quetiapine, read-out: OL differentiation, 10 uM (% Quet)

Row | SMILES | 0.1 µM (% DMSO) (expanded OPCs) | 1 µM (% DMSO) (expanded OPCs) | 10 µM (% DMSO) (expanded OPCs) | viability at 0.1 µM (expanded OPCs; [4]) [%] | viability at 1 µM (expanded OPCs; [5]) [%] | viability at 10 µM (expanded OPCs; [6]) [%] | activation at 2 µM [1, 7] [%] | viability at 0.1 µM (expanded OPCs; [10]) [%] | viability at 1 µM (expanded OPCs; [11]) [%] | viability at 10 µM (expanded OPCs; [12]) [%] | activation at 10 µM [1, 13] [%] | further results
1 | CC[C@@H](CO)NCCN[C@@H](CC)CO [Ethambutol] | 106.3 | 100.0 | 85.9 |  |  |  |  |  |  |  |  | activation at 2 µM [1, 2]: 2.2%; activation at 10 µM [1, 3]: -11.9%
2 | C#C[C@]1(O)CC[C@H]2[C@@H]3CCc4cc(O)ccc4[C@H]3CC[C@@]21C [Ethinyl Estradiol] |  |  |  | 81 | 88 | 43.9 | -2.6 |  |  |  |  | activation at 0.4 µM ([1]; relative to quetiapine): 7.3%
3 | CCc1cc(C(N)=S)ccn1 [Ethionamide] | 89.6 | 86.5 | 79.6 |  |  |  |  |  |  |  |  | activation at 2 µM [1, 8]: -7.9%; activation at 10 µM [1, 9]: 7.6%
4 | CC[C@]1(O)CC[C@H]2[C@@H]3CCC4=CCCC[C@@H]4[C@H]3CC[C@@]21C [Ethylestrenol] |  |  |  |  |  |  |  | 98 | 96.1 | 54.2 |  | activation at 2 µM [1, 8]: -2.2%; activation at 10 µM [1, 9]: -45.5%
5 | CCC(C(N)=O)N1CCCC1=O (stereo not drawn) [Etiracetam] |  |  |  | 86.3 | 90.6 | 91.7 | -3.1 |  |  |  | -6.3 | 
6 | CCc1cccc2c3c([nH]c12)C(CC)(CC(=O)O)OCC3 (stereo not drawn) [Etodolac] | 98.7 | 88.3 | 92.3 |  |  |  |  |  |  |  |  | activation at 2 µM [1, 2]: 20.9%; activation at 10 µM [1, 3]: 7.5%
7 | CCOC(=O)c1cncn1[C@H](C)c1ccccc1 [Etomidate] | 89.9 | 87.4 | 88.3 |  |  |  |  | 101 | 87.4 | 83 |  | activation at 2 µM [1, 2]: 10.1%; activation at 2 µM [1, 8]: -2.5%; activation at 10 µM [1, 3]: -7.1%; activation at 10 µM [1, 9]: -8.3%
8 | CCOC(=O)[C@@]1(CCCCCCOc2ccc(Cl)cc2)CO1 [Etomoxir] |  |  |  | 85.7 | 92.3 | 86.2 | 10.1 |  |  |  | 5.4 | 
9 | COc1cc([C@@H]2c3cc4c(cc3[C@@H](O[C@@H]3O[C@@H]5CO[C@@H](C)O[C@H]5[C@H](O)[C@H]3O)[C@H]3COC(=O)[C@H]23)OCO4)cc(OC)c1O [Etoposide] |  |  |  |  |  |  |  | 40.9 | 14 | 8.9 |  | activation at 0.08 µM ([1]; test compound at 0.08 uM, NCC library screen, relative to quetiapine, read-out: 0.08 uM (% Quet)): -42.3%
10 | C=C1C[C@@H]2[C@H](CC[C@]3(C)C(=O)CC[C@@H]23)[C@@]2(C)C=CC(=O)C=C12 [Exemestane] |  |  |  |  |  |  | -24.2 | 92.7 | 95.1 | 102 | -57.2 | 
11 | O=C1[C@H](CC[C@H](O)c2ccc(F)cc2)[C@@H](c2ccc(O)cc2)N1c1ccc(F)cc1 [Ezetimibe] |  |  |  | 93.7 | 87.4 | 48.7 | -114 |  |  |  |  | activation at 0.4 µM ([1]; relative to quetiapine): -41.3%
12 | CC(=O)OCC(CCn1cnc2cnc(N)nc21)COC(C)=O [Famciclovir] |  |  |  | 97.6 | 90.6 | 106 | -6.9 |  |  |  | -8.8 | 
13 | NC(N)=Nc1nc(CSCCC(N)=NS(N)(=O)=O)cs1 [Famotidine] |  |  |  | 92.3 | 96.4 | 102 | -2.2 |  |  |  | 17.8 | 
